The subject of one data set is ApoA-I mRNA. Nature of the data set: Quantification of ApoA-I mRNA in HepG2 cells. The data set is classed as cell-based. Further details: key: Active: An active compound is one that causes a >15% increase in ApoA-I mRNA at a concentration less than or equal to 100 uM. As to conditions: concentration less than or equal to 100 uM. The procedure: In this example, ApoA-I mRNA in tissue culture cells was quantitated to measure the transcriptional up-regulation of ApoA-I when treated with a compound of the invention.
HepG2 cells (˜2×10^5 per well) were placed in a 24-well plate in ˜400 μL MEM, supplemented with 0.5% (v/v) FBS, 24 h before addition of the compound of interest. At time of harvesting, the spent media was removed from the HepG2 cells and immediately placed on ice (for immediate use) or at −80° C. (for future use) in ApoA-I and albumin ELISAs. The cells remaining in the plate wells were rinsed in 200 μL PBS. PBS was carefully removed to avoid removing any loosely attached cells.
Once the PBS was removed, 85 μL cell lysis solution was added the cells in each well and incubated for 5-10 min at room temperature, to allow for complete cell lysis and detachment. mRNA was then prepared using the “mRNA Catcher PLUS plate” from Invitrogen, according to the protocol supplied. […]
The eluted mRNA isolated was then used in a one-step real-time […] reaction, using components of the Ultra Sense Kit together with Applied Biosystems primer-probe mixes. Real-time PCR data was analyzed, using the Ct values, to determine the fold induction of each unknown sample, relative to the control (that is, relative to the control for each independent DMSO concentration). […]

The conditions of data set [1]: subjects with low HDL-C; cited from earlier work.
The conditions of data set [2]: following oral administration; cited from earlier work.

Bounds are passed on as bounds.

“4-(1-Oxo-1,2-dihydroisoquinolin-3)phenyl 2-amino-5-guanidinopentanoate trihydrochloride [Example 4]”: the “Effect on ApoA-I mRNA levels” value with ApoA-I mRNA is recorded as “Active”. The compound `COc1cc2nc(-c3ccc(N(CCO)CCO)cc3)[nH]c(=O)c2cc1OC` [Example 47, 2-(4-(bis(2-hydroxyethyl)amino)phenyl)-6,7-dimethoxyquinazolin-4(3H)-one] gave a melting point of 268 to 270 °C. Still for that read-out and setting: with `COc1cc2nc(-c3ccc4c(c3)OCCO4)[nH]c(=O)c2cc1OC` [Example 48, 2-(2,3-dihydrobenzo[b][1,4]dioxin-6-yl)-6,7-dimethoxyquinazolin-4(3H)-one] the figure was 316.4 to 318.2 °C; with `COc1cc(OC)c2c(=O)[nH]c(-c3cc(C)c(OCCN4CCOCC4)c(C)c3)cc2n1` [Example 50, 7-(3,5-dimethyl-4-(2-morpholinoethoxy)phenyl)-2,4-dimethoxy-1,6-naphthyridin-5(6H)-one], 212.5 to 212.9 °C. In the case of `COc1cc2cc(-c3cc(C)c(O)c(C)c3)[nH]c(=O)c2c(OC)c1CN1CCOCC1` [Example 51, 3-(4-hydroxy-3,5-dimethylphenyl)-6,8-dimethoxy-7-(morpholinomethyl)isoquinolin-1(2H)-one], the melting point lay in the range of 158 to 161 °C. Consider `COc1cc2nc(-c3cc(C)c(O)c(C)c3)[nH]c(=O)c2cc1OC` [Example 52, 2-(4-hydroxy-3,5-dimethylphenyl)-6,7-dimethoxyquinazolin-4(3H)-one], for which the melting point is above 300 °C. `COc1cc(OC)c2c(=O)[nH]c(-c3ccc(CCC(=O)O)cc3)nc2c1` [Example 53, 3-(4-(5,7-dimethoxy-4-oxo-3,4-dihydroquinazolin-2-yl)phenyl)propanoic acid] returned a melting point of 250.6 to 251.1 °C. Consider `CC(=O)Nc1ccc2nc(-c3cc(C)c(O)c(C)c3)[nH]c(=O)c2c1` [Example 54, N-(2-(4-hydroxy-3,5-dimethylphenyl)-4-oxo-3,4-dihydroquinazolin-6-yl)acetamide], for which the melting point was 336.5 °C (dec.). Same read-out and setting: with `COc1cc2nc(-c3cc(C)c(OCC(N)=O)c(C)c3)[nH]c(=O)c2cc1OC` [Example 55, 2-(4-(6,7-dimethoxy-4-oxo-3,4-dihydroquinazolin-2-yl)-2,6-dimethylphenoxy)acetamide] the figure was 354 to 356 °C; with `COc1cc(OC)c2c(=O)[nH]c(-c3ccc(OCCO)c(Cl)c3)nc2c1` [Example 56, 2-(3-chloro-4-(2-hydroxyethoxy)phenyl)-5,7-dimethoxyquinazolin-4(3H)-one], 287 to 288 °C (dec.); with `COc1cc(OC)c2c(=O)[nH]c(-c3ccc(OCCO)c(OC)c3)nc2c1` [Example 57, 2-(4-(2-hydroxyethoxy)-3-methoxyphenyl)-5,7-dimethoxyquinazolin-4(3H)-one], 246 to 248 °C. As for `COc1cc2nc(-c3cc(C)c(OCCO)c(C)c3)[nH]c(=O)c2cc1OC` [Example 58, 2-(4-(2-hydroxyethoxy)-3,5-dimethylphenyl)-6,7-dimethoxyquinazolin-4(3H)-one], the melting point is above 300 °C. In turn, `COc1cc(OC)c2c(=O)[nH]c(-c3cc(C)c(NC(=O)CO)c(C)c3)nc2c1` [Example 60, N-(4-(5,7-dimethoxy-4-oxo-3,4-dihydroquinazolin-2-yl)-2,6-dimethylphenyl)-2-hydroxyacetamide] yielded a melting point of 190 to 192 °C. `COc1cc(OC)c2c(=O)[nH]c(-c3cc(C)c(OCCO)c(C)c3)cc2n1` [Example 61, 7-(4-(2-hydroxyethoxy)-3,5-dimethylphenyl)-2,4-dimethoxy-1,6-naphthyridin-5(6H)-one] displayed a melting point of 224.9 to 225.4 °C. Turning to `COc1cc(OC)c2c(=O)[nH]c(-c3cc(C)c(OC)c(C)c3)cc2n1` [Example 63, 2,4-dimethoxy-7-(4-methoxy-3,5-dimethylphenyl)-1,6-naphthyridin-5(6H)-one], the melting point was 262 to 263 °C (dec.). `COc1cc(OC)c2c(=O)[nH]c(-c3cc(C)c(OCC(=O)O)c(C)c3)nc2c1` [Example 64, 2-(4-(5,7-dimethoxy-4-oxo-3,4-dihydroquinazolin-2-yl)-2,6-dimethylphenoxy)acetic acid] displayed a melting point of 270 to 272 °C. Consider `COc1cc(OC)c2c(=O)[nH]c(-c3ccc(NC(=O)CO)cc3)nc2c1` [Example 65, N-(4-(5,7-dimethoxy-4-oxo-3,4-dihydroquinazolin-2-yl)phenyl)-2-hydroxyacetamide], for which the melting point is 318 to 319 °C. For `COc1cc(OC)c2c(=O)[nH]c(-c3cc(C)c(O)c(C)c3)nc2n1` [Example 68, 2-(4-hydroxy-3,5-dimethylphenyl)-5,7-dimethoxypyrido[2,3-d]pyrimidin-4(3H)-one], the melting point is 297 to 299 °C. The same measure, in the same setting: as for `COc1cc(OC)c2c(=O)[nH]c(-c3ccc(OC)c(CN4CCOCC4)c3)nc2c1` [Example 69, 5,7-dimethoxy-2-(4-methoxy-3-(morpholinomethyl)phenyl)quinazolin-4(3H)-one], the figure is 282.7 to 284.5 °C. In turn, `COc1cc(OC)c2c(=O)[nH]c(-c3cc(C)c(OCCO)c(C)c3)nc2n1` [Example 70, 2-(4-(2-hydroxyethoxy)-3,5-dimethylphenyl)-5,7-dimethoxypyrido[2,3-d]pyrimidin-4(3H)-one] gave a melting point of 255 to 256 °C. For the compound `COc1cc(OC)c2c(=O)nc(-c3cc(C)c(O)c(C)c3)n(C)c2c1` [Example 71, 2-(4-hydroxy-3,5-dimethylphenyl)-5,7-dimethoxy-1-methylquinazolin-4(1H)-one], the melting point was in the range of 188.5 to 189.1 °C. `CC(=O)Nc1ccc2nc(-c3cc(C)c(OCCO)c(C)c3)[nH]c(=O)c2c1` [Example 73, N-(2-(4-(2-hydroxyethoxy)-3,5-dimethylphenyl)-4-oxo-3,4-dihydroquinazolin-6-yl)acetamide] showed a melting point above 300 °C. The compound `Cc1cc(-c2cc3nc(OC(C)C)cc(OC(C)C)c3c(=O)[nH]2)cc(C)c1O` [Example 74, 7-(4-hydroxy-3,5-dimethylphenyl)-2,4-diisopropoxy-1,6-naphthyridin-5(6H)-one] came in with a melting point of 206 to 208 °C. The compound `COc1cc(OC)c2c(=O)[nH]c(-c3ccc(O)c(CCO)c3)nc2c1` [Example 75, 2-(4-hydroxy-3-(2-hydroxyethyl)phenyl)-5,7-dimethoxyquinazolin-4(3H)-one] yielded a melting point of 249 to 250.3 °C. `COc1cc(OC)c2cnc(-c3cc(C)c(OCCO)c(C)c3)nc2c1` [Example 76, 2-(4-(5,7-dimethoxyquinazolin-2-yl)-2,6-dimethylphenoxy)ethanol] came in with a melting point of 169 to 170 °C. `Cc1cc(C)c2c(=O)[nH]c(-c3cc(C)c(OCCO)c(C)c3)nc2c1` [Example 77, 2-(4-(2-hydroxyethoxy)-3,5-dimethylphenyl)-5,7-dimethylquinazolin-4(3H)-one] returned a melting point of 259.6 to 261.2 °C. For `COc1cc(OC)c2c(=O)[nH]c(-c3ccc(N(CCO)CCO)cc3)nc2n1` [Example 78, 2-(4-(bis(2-hydroxyethyl)amino)phenyl)-5,7-dimethoxy-pyrido[2,3-d]pyrimidin-4(3H)one], the melting point is 277 to 279 °C. Compound `COCCOc1c(C)cc(-c2nc3cc(OC)cc(OC)c3c(=O)[nH]2)cc1C` [Example 79, 5,7-dimethoxy-2-(4-(2-methoxyethoxy)-3,5-dimethylphenyl)quinazolin-4(3H)-one] displayed a melting point of 201 to 202 °C. Still for that read-out and setting: as for `Cc1cc(-c2nc3cc(Cl)cc(Cl)c3c(=O)[nH]2)cc(C)c1OCCO` [Example 80, 5,7-dichloro-2-(4-(2-hydroxyethoxy)-3,5-dimethylphenyl)quinazolin-4(3H)-one], the figure is 260.8 to 262.6 °C; as for `COc1cc2nc(-c3cc(C)c(O)c(C)c3)[nH]c(=O)c2c(OC)c1CN1CCOCC1` [Example 81, 2-(4-hydroxy-3,5-dimethylphenyl)-5,7-dimethoxy-6-(morpholinomethyl)quinazolin-4(3H)-one], 237 to 239.1 °C; as for `COc1cc(OC)c2c(=O)[nH]c(-c3ccc(OCC(=O)O)c(OC)c3)nc2c1` [Example 103, 2-(4-(5,7-dimethoxy-4-oxo-3,4-dihydroquinazolin-2-yl)2-methoxyphenoxy)acetic acid], 275 to 277 °C. The compound `COc1cc(O)c2c(=O)[nH]c(-c3cc(C)c(O)c(C)c3)nc2c1` [Example 104, 5-hydroxy-2-(4-hydroxy-3,5-dimethylphenyl)-7-methoxyquinazolin-4(3H)-one] came in with a melting point of 291.3 to 293 °C. In the case of `Cc1ccc(C)c(OCCCC(C)(C)C(=O)O)c1` [gemfibrozil], in data set [1], the “increase in the HDL-C level” value is recorded as 6% and the “reduction of the CHD risk” value is 22%. Turning to `O=c1c(O)c(-c2ccc(O)c(O)c2)oc2cc(O)cc(O)c12` [quercetin], in data set [2], the intestinal absorption entry was “less than 1%”.

In general, melting point refers to the temperature of the solid-liquid transition.
